# Results reported in patent US11332438B2, “Creatine prodrugs, compositions and methods of use thereof” (Ultragenyx Pharmaceutical Inc., priority 2017, dated 2022).
# How the values were obtained:
# [1] = In vivo IV dosing in CrT KO mice: prodrug, d3-Cr and d3-Crn in brain (Table 5); conditions: CrT KO mouse brain, BQL prodrug = 41.2 ng/mL
# Summary of the method: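 CrT KO mice received prodrugs by IV injection at 10, 15 or 25 mg/kg. Brains were collected, flash frozen and homogenized in 100 mM KPI buffer with anti-proteases. Prodrug, d3-Cr and d3-Crn were quantified by LC-MS/MS and expressed as brain concentration (macrocycles) or AUC over time (linear prodrugs).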
# [2] = Prodrug cleavage in human brain homogenates (HBH): d3-Cr release and d3-Crn cyclization; type: in vitro ADME; conditions: in vitro cleavage assays (Table 3A)
# Summary of the method: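 d3-labelled prodrugs (20 and 200 μM final) incubated with FAAH-preserving human brain homogenate (~3-4 mg) or rFAAH plus 1 mM NADPH; controls without enzyme, heat-inactivated enzyme, or 1 μM FAAH inhibitor […]. LC-MS/MS of d3-Cr and d3-Crn at 3 h, each expressed as percent of 200 μM input, net of control for d3-Cr.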
# creatine transporter = molecular target: T1, creatine transporter (Rattus norvegicus, UniProt P28570); experiment: Co-administration with creatine transporter blocker beta-guanidinopropionic acid (GPA), d3-Cr in WT rat brain; type: in vivo
# T1 construct: from tissue; host or cells: WT rat, in vivo (brain / blood-brain barrier)
# T1 sequence (P28570 1-635): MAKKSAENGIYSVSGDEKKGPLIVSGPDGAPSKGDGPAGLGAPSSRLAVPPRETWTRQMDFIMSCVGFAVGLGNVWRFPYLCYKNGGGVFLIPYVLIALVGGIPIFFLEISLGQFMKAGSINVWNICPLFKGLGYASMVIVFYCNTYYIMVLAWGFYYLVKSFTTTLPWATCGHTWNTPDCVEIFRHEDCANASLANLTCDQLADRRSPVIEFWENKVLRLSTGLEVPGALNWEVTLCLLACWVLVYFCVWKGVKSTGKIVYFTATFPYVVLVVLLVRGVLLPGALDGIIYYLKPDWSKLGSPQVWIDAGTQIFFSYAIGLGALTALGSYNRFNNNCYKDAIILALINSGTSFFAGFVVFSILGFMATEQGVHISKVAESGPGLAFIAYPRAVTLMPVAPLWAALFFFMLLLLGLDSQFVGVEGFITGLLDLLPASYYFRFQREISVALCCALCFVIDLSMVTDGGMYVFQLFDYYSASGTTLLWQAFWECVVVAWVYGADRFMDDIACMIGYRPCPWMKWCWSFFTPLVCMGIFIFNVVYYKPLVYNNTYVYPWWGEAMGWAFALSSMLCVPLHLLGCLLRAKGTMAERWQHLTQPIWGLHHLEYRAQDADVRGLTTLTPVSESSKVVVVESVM
# [3] = molecular target: T2, recombinant human FAAH enzyme (rFAAH) (Homo sapiens, UniProt O00519); experiment: Direct prodrug cleavage with recombinant human FAAH enzyme (rFAAH): d3-Cr release and d3-Crn cyclization; type: biochemical; conditions: 200 μM prodrug, 3 h; result in words
# T2 sequence (O00519 1-579): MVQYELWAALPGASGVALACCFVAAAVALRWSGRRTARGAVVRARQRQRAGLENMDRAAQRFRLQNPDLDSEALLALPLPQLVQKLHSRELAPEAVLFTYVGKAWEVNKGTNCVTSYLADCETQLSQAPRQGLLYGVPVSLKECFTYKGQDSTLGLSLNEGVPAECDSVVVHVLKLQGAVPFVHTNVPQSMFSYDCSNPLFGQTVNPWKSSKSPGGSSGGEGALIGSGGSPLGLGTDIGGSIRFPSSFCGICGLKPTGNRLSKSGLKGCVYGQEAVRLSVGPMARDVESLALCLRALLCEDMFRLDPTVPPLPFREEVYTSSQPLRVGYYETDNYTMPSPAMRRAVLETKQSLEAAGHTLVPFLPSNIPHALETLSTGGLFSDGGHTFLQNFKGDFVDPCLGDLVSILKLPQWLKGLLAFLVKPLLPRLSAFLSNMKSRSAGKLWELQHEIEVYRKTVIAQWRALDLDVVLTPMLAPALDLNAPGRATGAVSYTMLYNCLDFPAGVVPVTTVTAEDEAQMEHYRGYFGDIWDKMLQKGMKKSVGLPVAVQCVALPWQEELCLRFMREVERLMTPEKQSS
# Procedure: For assessment of the ability of prodrugs to release creatine, and to release creatine preferentially to unwanted cyclization to creatinine, d3-labeled (deuterium labeled methyl group) prodrugs are incubated with brain homogenates (e.g., mouse, human) specially prepared to preserve FAAH activity or with rFAAH for direct cleavage study. The use of d3-labelled prodrugs is essential in order to distinguish prodrug-derived creatine (d3-creatine) from high concentrations of endogenous (non-labeled) creatine. […] Prodrugs are tested at final concentrations of 20 μM and 200 μM. Approximately 3-4 mg of homogenate is used for each reaction. Co-factor (NADPH) is included at a final concentration of 1 mM. FAAH activity is confirmed by conversion of 7-amino-4-methyl Coumarin-Arachidonamide to 7-amino-4-methyl Coumarin by fluorescent assay. Negative controls include incubations without brain homogenate/rFAAH (but with NADPH) or 65° C. heat inactivated brain homogenate/rFAAH to assess non-enzymatic prodrug cleavage under the conditions of the assay and FAAH inhibitor […] at the concentration of 1 μM. Prodrug incubations are prepared by addition of 8 μL of prodrug stock solution (500 or 5000 μM in DMSO or DMSO/methanol) to assay buffered, followed by addition of brain homogenate/rFAAH. […] The samples are centrifuged at 15890×g for 10 minutes at 4° C., followed by transfer of the supernatants for storage at −20° C. pending LC-MS/MS analysis. Sample supernatants are analyzed by LC-MS/MS for determination of d3-prodrug, d3-creatine and d3-creatinine levels.
# Deuterated creatine prodrugs were tested in 3 different in vitro assays to assess d3-creatine (d3-Cr) release and cyclization to form d3-creatinine (d3-Crn). These assays were 1) direct cleavage with recombinant human FAAH enzyme (rFAAH), 2) cleavage in mouse brain homogenates (MBH), and 3) human brain homogenates (HBH).
# Creatine prodrug cleavage efficiency was determined by percentage of net d3-Cr release in μM (positive reaction subtracted from negative control of no brain homogenate/rFAAH or inactivated brain homogenate/rFAAH) over nominal input concentration of 200 μM prodrug at 3 h. Propensity for creatinine cyclization was determined by percentage of d3-Crn generated in μM in positive reaction over nominal input concentration of 200 μM prodrug at 3 h.
AUClast prodrug in the brain ([1]; IV 15 mg/kg),d3-Crn (creatinine) cyclization in vitro (in words) [2],d3-Crn (creatinine) cyclization in vitro (in words) ([2]; listed as Compound 8),levels of d3-Cr in WT rat brains with co-administration of GPA compared to dosing alone (creatine transporter),Prodrug Cleavage rFAAH d3-Crn release (yes/no) [3],Prodrug Cleavage rFAAH net d3-Cr release (yes/no) [3],AUClast prodrug in the brain ([1]; IV 10 mg/kg),Structure (SMILES)
BQL,predominantly creatinine cyclization,predominantly cyclized into creatinine,did not change,–,–,–,Cl.[2H]C([2H])([2H])N(CC(=O)OCC)C(=N)NC(=O)CCCCCCCCCC [Compound 8]
–,–,–,–,yes,no,–,"Cl.[H]/N=C(/NC(=O)CCCCCCC/C=C\CCCCCCCC)N(CC(=O)OCCCCCCC)C([2H])([2H])[2H] [Compound 2, (Z)-heptyl 2-(1-trideuteriomethyl-3-oleoylguanidino)acetate Hydrochloride]"
–,–,–,–,yes,no,BQL,Cl.[2H]C([2H])([2H])N(CC(=O)OCCCCCCC)C(=N)NC(=O)CCCCCCCCCCCC [Compound 11]
